What is called pIC50 is the IC50 on a negative log10 scale, so that one unit is a factor of ten. Read a high pIC50 as a small IC50.

The structures appear in SMILES notation. pIC50: −log10 of the molar value. A value given as a limit tells only on which side of the number the result lay.

The subject of assay [1] is hemoglobin in mice. Briefly: Effect of compounds of Examples on hemoglobin in mice. Particulars: male C57B1/6 mice, 3 times each week for 2 weeks, 6 hours after last administration minus before first administration. It is filed as in vivo. How it is done: Male C57B1/6 mice of 8-10 weeks (Shanghai Slack Laboratory Animals Co., Ltd.) were administrated orally the test compounds in 30 mg/kg for 2 weeks, 3 times each week and Roxadustat (CAS: 808118-40-3) was administrated in an amount of 60 mg/kg as a positive control. Before the first administration and 6 hours after the last administration, about 30 μl of blood was taken from the mandibular vein, and the hemoglobin content was measured by Hemocue hemoglobin analyzer. The hemoglobin elevation was calculated as the value obtained by subtracting the first hemoglobin content from the hemoglobin content after the last administration.
In addition, hemoglobin elevation was also tested in the same manner for Roxadustat as a positive control. Roxadustat was purchased from Selleckchem, which was known to be a potent inhibitor of HIF prolyl hydroxylase in the art and be able to increase hemoglobin production.

The target in assay [2] is HIF prolyl hydroxylase-2 (HIF-PHD2) (Homo sapiens (Human), UniProt Q9GZT9). Nature of the assay: Effect of compounds on activities of HIF prolyl hydroxylase-2 (hydroxylation of immobilized HIF-1α556-574 peptide, Eu-VBC binding, OD 450 nm). It is filed as biochemical. The settings on record: HIF-PHD2, biotinyl-HIF-1α556-574 substrate; representative, relative values.
Sequence of HIF prolyl hydroxylase-2 (HIF-PHD2) (Q9GZT9 whole entry, species assumed): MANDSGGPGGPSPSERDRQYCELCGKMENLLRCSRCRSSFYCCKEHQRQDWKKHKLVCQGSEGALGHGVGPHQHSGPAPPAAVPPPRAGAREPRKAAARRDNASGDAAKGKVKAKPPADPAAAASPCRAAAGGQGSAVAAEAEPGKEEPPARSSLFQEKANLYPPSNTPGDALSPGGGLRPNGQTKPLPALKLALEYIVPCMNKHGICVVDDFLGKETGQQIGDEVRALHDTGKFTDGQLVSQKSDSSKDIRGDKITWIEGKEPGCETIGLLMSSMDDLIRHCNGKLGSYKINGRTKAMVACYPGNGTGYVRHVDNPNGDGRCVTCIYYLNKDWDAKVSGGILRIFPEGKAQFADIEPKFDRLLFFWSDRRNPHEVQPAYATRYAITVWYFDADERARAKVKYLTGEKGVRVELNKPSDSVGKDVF

In turn, `C[C@H]1CC[C@]2(CC1)C(O)=C(C(=O)NCC(=O)O)C(=O)c1cccn12` [Example 68, ((1,4-trans)-6′-hydroxy-4-methyl-8′-oxo-8′H-spiro[cyclohexane-1,5′-indolizine]-7′-carbonyl)glycine] had a Hemoglobin elevation in assay [1] (oral 30 mg/kg) of 5.2 g/dL.
Regarding `CCOC(=O)[C@H](C)NC(=O)C1=C(O)C2(CCCC2)n2cccc2C1=O` [Example 21, (6′-Hydroxy-8′-oxo-8′H-spiro[cyclopentane-1,5′-indolizine]-7′-carbonyl)-L-alanine ethyl ester], the Hemoglobin elevation in assay [1] (oral 30 mg/kg) stood at 1.8 g/dL. In assay [2], this compound had a pIC50 of under 5.00.
In assay [2], `CC(C)(C)C(=O)OCOC(=O)CNC(=O)C1=C(O)C2(CCCCC2)n2cccc2C1=O` [Example 22, (((6′-hydroxy-8′-oxo-8′H-spiro[cyclohexane-1,5′-indolizine]-7′-carbonyl)glycyloxy)methyl) pivalate] showed a pIC50 of under 5.00.
Turning to `O=C(O)CNC(=O)C1=C(O)C2(CCCCC2)n2cccc2C1=O` [Example 13, (6′-Hydroxy-8′-oxo-8′H-spiro[cyclohexane-1,5′-indolizine]-7′-carbonyl)glycine], the Hemoglobin elevation in assay [1] (oral 30 mg/kg) was determined as 4.3 g/dL.
`C[C@H]1CC[C@@]2(CC1)C(O)=C(C(=O)NCC(=O)O)C(=O)c1cccn12` [Example 69, ((1,4-cis)-6′-hydroxy-4-methyl-8′-oxo-8′H-spiro[cyclohexane-1,5′-indolizine]-7′-carbonyl)glycine] displayed a Hemoglobin elevation in assay [1] (oral 30 mg/kg) of 0.7 g/dL.
The same measure, in the same setting: in the case of `O=C(O)CNC(=O)C1=C(O)C2(CC2)n2cccc2C1=O` [Example 1, (6′-Hydroxy-8′-oxo-8′H-spiro[cyclopropane-1,5′-indolizine]-7′-carbonyl) glycine] it was 1.0 g/dL.
Same read-out and setting: in the case of `O=C(O)CNC(=O)C1=C(O)C2(CCCC2)n2ccc(C3CC3)c2C1=O` [Example 62, (1′-cyclopropyl-6′-hydroxy-8′-oxo-8′H-spiro[cyclopentane-1,5′-indolizine]-7′-carbonyl)glycine] it was 0.1 g/dL; in that of `O=C(O)CNC(=O)C1=C(O)C2(CCCCCC2)n2cccc2C1=O` [Example 67, (6′-Hydroxy-8′-oxo-8′H-spiro[cycloheptane-1,5′-indolizine]-7′-carbonyl)glycine], 0.8 g/dL.
In the case of `O=C(O)CNC(=O)C1=C(O)C2(CCC2)n2c(ccc2-c2ccccc2)C1=O` [Example 39, (6′-Hydroxy-8′-oxo-3′-phenyl-8′H-spiro[cyclobutane-1,5′-indolizine]-7′-carbonyl)glycine], the Hemoglobin elevation in assay [1] (oral 30 mg/kg) stood at 4.8 g/dL.
For the compound `O=C(O)CNC(=O)C1=C(O)C2(CCCC2)n2c(ccc2-c2ccccc2)C1=O` [Example 24, (6′-Hydroxy-8′-oxo-3′-phenyl-8′H-spiro[cyclopentane-1,5′-indolizine]-7′-carbonyl)glycine], in assay [1] (oral 30 mg/kg), the Hemoglobin elevation was found to be 4.0 g/dL.
`O=C(O)CNC(=O)C1=C(O)C2(CCCCC2)n2c(ccc2-c2ccccc2)C1=O` [Example 35, (6′-Hydroxy-8′-oxo-3′-phenyl-8′H-spiro[cyclohexane-1,5′-indolizine]-7′-carbonyl)glycine]: in assay [1] (oral 30 mg/kg), the Hemoglobin elevation was 2.5 g/dL.
Turning to `COC(=O)CNC(=O)C1=C(O)C2(CCCC2)n2cccc2C1=O` [Example 9, (6′-Hydroxy-8′-oxo-8′H-spiro[cyclopentane-1,5′-indolizine]-7′-carbonyl)glycine methyl ester], the Hemoglobin elevation in assay [1] (oral 30 mg/kg) turned out to be 2.0 g/dL. This compound gave a pIC50 in assay [2] of under 5.00.
With `C[C@H](NC(=O)C1=C(O)C(C)(C)n2cccc2C1=O)C(=O)O` [Example 5, (6-Hydroxy-5,5-dimethyl-8-oxo-5,8-dihydroindolizin-7-carbonyl)-L-alanine], in assay [1] (oral 30 mg/kg), the Hemoglobin elevation was found to be 1.0 g/dL.
`O=C(O)CNC(=O)C1=C(O)C2(CCCC2)n2cccc2C1=O` [Example 8, (6′-Hydroxy-8′-oxo-8′H-spiro[cyclopentane-1,5′-indolizine]-7′-carbonyl)glycine]: the Hemoglobin elevation in assay [1] (oral 30 mg/kg) was determined as 3.1 g/dL.
Regarding `C[C@H](NC(=O)C1=C(O)C2(CCC2)n2cccc2C1=O)C(=O)O` [Example 7, (6′-Hydroxy-8′-oxo-8′H-spiro[cyclobutane-1,5′-indolizine]-7′-carbonyl)-L-alanine], the Hemoglobin elevation in assay [1] (oral 30 mg/kg) was 0.7 g/dL.
For the compound `Cc1nc(C(=O)NCC(=O)O)c(O)c2ccc(Oc3ccccc3)cc12` [Roxadustat, reference compound], the Hemoglobin elevation in assay [1] (positive control, 60 mg/kg) is listed as 1.7 g/dL.
In the case of `C[C@H](NC(=O)C1=C(O)C2(CCCC2)n2cccc2C1=O)C(=O)O` [Example 11, (6′-Hydroxy-8′-oxo-8′H-spiro[cyclopentane-1,5′-indolizine]-7′-carbonyl)-L-alanine], the Hemoglobin elevation in assay [1] (oral 30 mg/kg) came out at 2.0 g/dL.
On to `CCOC(=O)CNC(=O)C1=C(O)C2(CCCCC2)n2cccc2C1=O` [Example 46, (6′-Hydroxy-8′-oxo-8′H-spiro[cyclohexane-1,5′-indolizine]-7′-carbonyl)glycine ethyl ester], for which the pIC50 in assay [2] is under 5.00.
The compound `C[C@H](NC(=O)C1=C(O)C2(CC2)n2cccc2C1=O)C(=O)O` [Example 2, (6′-Hydroxy-8′-oxo-8′H-spiro[cyclopropane-1,5′-indolizine]-7′-carbonyl)-L-alanine] gave a Hemoglobin elevation in assay [1] (oral 30 mg/kg) of 0.6 g/dL.
For `CCOC(=O)CNC(=O)C1=C(O)C2(CCCC2)n2cccc2C1=O` [Example 10, (6′-Hydroxy-8′-oxo-8′H-spiro[cyclopentane-1,5′-indolizine]-7′-carbonyl)glycine ethyl ester], the Hemoglobin elevation in assay [1] (oral 30 mg/kg) turned out to be 1.9 g/dL. This compound also showed a pIC50 in assay [2] of under 5.00.
Consider `C[C@@H](NC(=O)C1=C(O)C2(CCCC2)n2cccc2C1=O)C(=O)O` [Example 12, (6′-Hydroxy-8′-oxo-8′H-spiro[cyclopentane-1,5′-indolizine]-7′-carbonyl)-D-alanine], for which the Hemoglobin elevation in assay [1] (oral 30 mg/kg) amounted to 0.8 g/dL.
Same read-out and setting: in the case of `CC1(C)C(O)=C(C(=O)NCC(=O)O)C(=O)c2cccn21` [Example 4, (6-Hydroxy-5,5-dimethyl-8-oxo-5,8-dihydroindolizin-7-carbonyl) glycine] it was 0.8 g/dL.
Same read-out and setting: in the case of `C[C@H](NC(=O)C1=C(O)C2(CCCCC2)n2cccc2C1=O)C(=O)O` [Example 14, (6′-Hydroxy-8′-oxo-8′H-spiro[cyclohexane-1,5′-indolizine]-7′-carbonyl)-L-alanine] it was 1.0 g/dL.
On the same count and under the same terms, in the case of `O=C(O)CNC(=O)C1=C(O)C2(CCC2)n2cccc2C1=O` [Example 6, (6′-Hydroxy-8′-oxo-8′H-spiro[cyclobutane-1,5′-indolizine]-7′-carbonyl)glycine] it was 0.9 g/dL.

The values are drawn from patent US11021478B2, “Indolizine derivatives and their application in medicine” (Kind Pharmaceutical, priority 2017, dated 2021).
